{"source": "patent US20240376163A1", "about": "“PEPTIDE FOR INHIBITING CALCINEURIN AND USE THEREOF” (Seoul National University R&DB Foundation, priority 2023, published 2024)", "key": {"[1]": {"system": "Jurkat T cells", "assay": "DMOG treatment of Jurkat T cells expressing CABIN1 peptide, immunoprecipitation and Western blotting", "assay_type": "cell-based", "procedure": "In FIG. 6A, Jurkat T cells expressing HA-mCherry-tagged CABIN1 peptide were treated with DMOG for 12 hours in a dose-dependent manner. In FIG. 6B, Jurkat T cells expressing HA-mCherry-tagged CABIN1 peptide were treated with 500 μM DMOG over time. Each cell lysate was immunoprecipitated with HA antibodies, and CNA bound to CABIN1 peptides was detected by Western blotting. HIF-1α was used as a positive control for DMOG treatment. In FIG. 6C, HEK293T cells were transfected with GST-tagged peptides and subjected to GST pull-down assay. Hydroxyproline and O-linked glycosylation of each peptide were detected by Western blotting. NC: negative control.\n(§1) Cells were lysed in IP150 buffer and immunoprecipitated Flag- and HA-tagged proteins using Anti-FLAG® M2 Affinity Gel (Sigma-Aldrich) and Pierce™ Anti-HA Agarose (Thermo Fisher Scientific), respectively. Conventional methods were used to construct the buffer and subsequent processes (Kim, H. J. et al. Nuclear Acids Res. 46, 6544-6560 (2018)). To quantify the Western blotting results, band regions were measured using ImageJ (https://imagej.nih.gov/ij/)."}, "[2]": {"biological_target": "T1, p38a (Homo sapiens, UniProt Q16539)", "T1 sequence (Q16539 whole entry)": "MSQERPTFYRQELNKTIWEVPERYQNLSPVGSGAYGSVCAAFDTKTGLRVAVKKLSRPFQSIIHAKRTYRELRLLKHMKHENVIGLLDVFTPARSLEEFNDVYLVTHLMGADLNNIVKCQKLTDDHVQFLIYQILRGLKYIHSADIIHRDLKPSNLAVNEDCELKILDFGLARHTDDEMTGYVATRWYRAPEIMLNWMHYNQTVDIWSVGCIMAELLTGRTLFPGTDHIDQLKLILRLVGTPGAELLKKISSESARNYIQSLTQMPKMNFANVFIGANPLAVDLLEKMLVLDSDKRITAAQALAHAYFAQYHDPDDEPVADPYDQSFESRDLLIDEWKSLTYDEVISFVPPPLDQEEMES", "assay": "p38 inhibitor treatment of Jurkat T cells expressing CABIN1 peptide, immunoprecipitation and Western blotting", "assay_type": "cell-based", "parameters": "endogenous in cells; host or cells: Jurkat T (E6-1)", "conditions": "10 μM, 16 hours", "procedure": "In FIG. 8A, Jurkat T cells expressing HA-mCherry-tagged CABIN1 peptide were treated with 40 nM PMA in a time-dependent manner. Phosphorylated threonine in peptides immunoprecipitated with HA antibody was detected with [PXpTP] antibody. […] In FIG. 8G, Jurkat T cells expressing HA-mCherry-tagged CABIN1 peptide were treated with 10 μM p38a inhibitor for 16 hours. Immunoprecipitation was performed with HA antibody and detected by Western blotting. In FIG. 8H, phosphorylated threonine and peptide-bound CNA in FIG. 8G were measured using ImageJ, and the ratio of phosphorylation and calcineurin bound to CABIN1 peptide was calculated (n=6). The values shown are mean±standard deviation. Statistical differences were determined using one-way analysis of variance. * p<0.05, ** p<0.01, *** p<0.001, CBB: Coomassie Brilliant Blue, NC: negative control.\nas §1, with “Conventional methods were used to construct the buffer and subsequent processes (Kim, H. J. et al. Nuclear Acids Res. 46, 6544-6560 (2018)).” left out"}, "[3]": {"system": "CNA", "conditions": "SPR, CNA 1.25-10 nM", "procedure": "Biacore T200 (Cytiva) was used to capture biotin-labeled peptides on the surface of Series S Sensor Chip SA (Cytiva). […] Each cycle was performed at 25° C. with 120 seconds of contact and 240 seconds of dissociation at a flow rate of 30 μl/min. The kinetics of the interaction were analyzed using BIAvaluation 3.2 RC1 (Cytiva)."}, "[4]": {"system": "CNA", "conditions": "biotin-labeled peptides", "protocol": "(§7) A His-pulldown assay was performed with 0.5 ml of IP150 buffer containing 0.5 mM EDTA. His-tagged CNA and GST-tagged peptides were mixed and captured on Ni-NTA agarose beads (Qiagen, Hilden, Germany). The beads were washed three times with binding buffer, and the proteins were analyzed by Western blotting. GST-tagged peptides were pulled down using Glutathione Sepharose™ 4 Fast Flow (Cytiva, Marlborough, MA, USA), and biotin-labeled peptides were pulled down using Streptavidin Agarose Resin (Thermo Fisher Scientific)."}, "[5]": {"system": "CNA", "assay": "Ka (1/MS)", "procedure": "(§2) Table printed on a drawing sheet, FIG. 7G\nHead of the field: Ka (1/MS)\n(§3) FIG. 7A is the sequence of the CABIN1 peptide with a threonine to valine substitution (TV). […] In FIG. 7C, a luciferase reporter assay was performed to measure NFAT transcriptional activity in Jurkat T cells expressing GST-tagged CABIN1 peptides under PMA and ionomycin treatment (n=3). […] CNA bound to the peptide and phosphorylated threonine were detected by Western blotting. In FIG. 7E, phosphorylation of the 9th threonine of the CABIN1 peptide (threonine 2154 of full-length CABIN1) was detected by LC-MS/MS in Jurkat T cells. In FIG. 7F, an in vitro pull-down assay was performed using streptavidin-coupled agarose beads. CNA bound to the biotinylated peptide was detected with a His antibody. VEET peptide was used as a negative control. In FIG. 7G, CNA binding to biotinylated CABIN1 peptide according to the presence or absence of phosphorylation of the 9th threonine was measured by SPR. CNA concentration ranges are 1.25, 2.5, 5, and 10 nM. The kinetics of the interaction were calculated using the data of the CABIN1 peptide-captured cells minus the negative control peptide-captured cell. The values shown are mean±standard deviation. RU: […], NC: negative control.\n(§4) First copying reader's note: SPR binding kinetics of the peptides to CNA; each cell holds the value together with its ± deviation. […]"}, "[6]": {"system": "CNA", "assay": "Kd (1/S)", "procedure": "as §2\nHead of the field: Kd (1/S)\nas §3, §4"}, "[7]": {"biological_target": "T2, CNAβ2 (Homo sapiens, UniProt P16298)", "T2 construct": "expressed in transfected cells; host or cells: HEK293T", "T2 sequence (P63098 2-170 partner limits assumed, other chains not shown)": "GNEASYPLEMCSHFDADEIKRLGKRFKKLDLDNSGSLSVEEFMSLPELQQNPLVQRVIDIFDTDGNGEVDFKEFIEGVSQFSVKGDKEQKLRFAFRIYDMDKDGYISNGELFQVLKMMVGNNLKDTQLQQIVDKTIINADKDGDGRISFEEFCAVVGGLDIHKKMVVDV", "assay": "Mammalian two-hybrid assay (GAL4 DBD-peptides, VP16 AD-CNAβ2, pG5-luc) in HEK293T cells", "assay_type": "cell-based", "procedure": "(§5) To measure the transcriptional activity of NFAT, Jurkat T cells were cotransfected with GST-tagged peptides and NFAT-luc by electroporation. After 24 hours, the cells were pretreated with 0.5 μM FK506 for 1 hour and then treated with 40 nM PMA and 1 μM ionomycin for 8 hours. For mammalian two-hybrid assay, HEK293T cells were cotransfected with GAL4 DBD-tagged CABIN1, VIVIT, chimeric, and substituted peptides, VP16 activation domain-tagged CNAβ2, and pG5-luc (a luciferase reporter plasmid containing the GAL4 reaction promoter) for 24 hours. Harvested cells were lysed with luciferase assay lysis buffer (17 mM KH2PO4, 183 mM K2HPO4, pH 7.8, 0.2% [v/v] Triton X-100) and sonicated briefly. The luciferase activity against each cell lysate was measured using Infinite M200 (Tecan, Männedorf, and Switzerland). In addition, the expression level of the transfected protein was confirmed by Western blotting."}, "[8]": {"biological_target": "T3, ERK2 (Homo sapiens, UniProt P28482)", "T3 construct": "purchased Proqinase GmbH (Freiburg, Germany)", "T3 sequence (P28482 whole entry)": "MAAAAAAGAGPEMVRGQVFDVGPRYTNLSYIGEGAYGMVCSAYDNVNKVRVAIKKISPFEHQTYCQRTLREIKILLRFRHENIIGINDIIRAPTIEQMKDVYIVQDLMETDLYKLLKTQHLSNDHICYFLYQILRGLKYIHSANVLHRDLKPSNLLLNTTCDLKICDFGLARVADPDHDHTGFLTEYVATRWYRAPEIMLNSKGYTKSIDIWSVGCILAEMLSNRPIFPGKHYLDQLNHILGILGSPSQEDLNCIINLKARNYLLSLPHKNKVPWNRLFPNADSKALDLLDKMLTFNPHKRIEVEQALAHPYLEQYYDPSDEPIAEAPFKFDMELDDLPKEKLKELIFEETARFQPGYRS", "assay": "In vitro kinase assay", "assay_type": "biochemical", "conditions": "purified GST-tagged peptide", "procedure": "(§6) Purified GST-tagged peptides were used for the in vitro kinase assay using activated recombinant kinase obtained from Proqinase GmbH (Freiburg, Germany). Kinase reactions were induced in reaction buffer (50 mM HEPES-NaOH, pH 7.5, 3 mM MgCl2, 3 mM MnCl2, 3 μM sodium orthobanadate, 1 mM dithiothreitol, 50 μM unlabeled ATP, 5 μCi 32P-γ-ATP) for 1 hour at 30° C. The reaction was stopped by the addition of 5× sample buffer, and proteins were isolated using SDS-PAGE. The gels were stained with Coomassie Brilliant Blue, dried, and developed on X-ray film."}, "[9]": {"biological_target": "T4, JNK1 (Homo sapiens, UniProt P45983)", "T4 construct": "purchased Proqinase GmbH (Freiburg, Germany)", "T4 sequence (P45983 whole entry)": "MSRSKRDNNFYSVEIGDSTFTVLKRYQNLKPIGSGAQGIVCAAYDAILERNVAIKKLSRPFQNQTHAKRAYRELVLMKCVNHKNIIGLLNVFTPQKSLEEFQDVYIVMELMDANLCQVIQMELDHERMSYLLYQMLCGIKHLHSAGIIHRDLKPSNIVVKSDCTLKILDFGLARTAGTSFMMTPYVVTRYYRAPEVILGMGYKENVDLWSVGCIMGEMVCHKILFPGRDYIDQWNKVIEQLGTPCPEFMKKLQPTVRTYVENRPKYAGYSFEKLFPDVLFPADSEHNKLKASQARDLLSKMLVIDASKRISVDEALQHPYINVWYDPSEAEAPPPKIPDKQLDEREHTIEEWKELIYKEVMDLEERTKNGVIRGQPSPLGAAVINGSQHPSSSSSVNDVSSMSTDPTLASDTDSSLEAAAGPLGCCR", "assay": "In vitro kinase assay", "assay_type": "biochemical", "conditions": "purified GST-tagged peptide", "procedure": "as §6"}, "[10]": {"biological_target": "T1, p38a", "assay": "In vitro kinase assay", "assay_type": "biochemical", "conditions": "purified GST-tagged peptide", "procedure": "as §6"}, "[11]": {"biological_target": "T2, CNAβ2", "assay": "Immunoprecipitation assay of Flag-CNAβ2 and tagged peptides in HEK293T cells", "assay_type": "cell-based", "procedure": "as §1"}, "[12]": {"system": "CNA", "assay": "In vitro His-pull down assay with purified protein", "assay_type": "binding", "protocol": "as §7"}, "[13]": {"system": "NFAT transcriptional activity", "assay": "NFAT luciferase reporter assay in Jurkat T cells expressing GST-tagged peptides", "assay_type": "cell-based", "conditions": "PMA and ionomycin treatment", "procedure": "as §5"}}, "note": "Where two headings read alike, the source gives them in different places."}
{"compound": "COC(=O)CNC(=O)C(=O)OC", "note": "[DMOG, dimethyloxalylglycine]", "values": [{"measurement": "interaction between CABIN1 peptide and CNA", "setting": "[1]; DMOG dose-dependent 12 hours or 500 μM over time", "value": "had no effect on the interaction between CABIN1 peptide and CNA"}, {"measurement": "HIF-1α stabilization", "setting": "[1]; positive control for DMOG treatment", "value": "stabilized HIF-1α"}]}
{"compound": "Cc1ccccc1C(=O)c1ccc(Nc2ccc(Br)cc2N)cc1Cl", "note": "[EO 1428]", "values": [{"measurement": "binding affinity of CABIN1 peptide for CNA", "setting": "[2]", "value": "reducing binding affinity for CNA"}, {"measurement": "phosphorylation of the CABIN1 peptide", "setting": "[2]", "value": "significantly reduced phosphorylation of the CABIN1 peptide"}]}
{"compound": "Biotin-AAAMAGFPPEITVTPP {pTHR} P [phosphorylated CABIN1-L-1]", "values": [{"measurement": "increase of binding affinity to CNA, phosphorylated vs unphosphorylated CABIN1 peptide", "setting": "[3]; listed as phosphorylated CABIN1 peptide", "value": "about three times"}, {"measurement": "increase of binding affinity to CNA, phosphorylated vs unphosphorylated CABIN1 peptide", "setting": "[3]; listed as phosphorylated CABIN1 peptides", "value": "approximately three-fold"}, {"measurement": "affinity for CNA (pull-down)", "setting": "[4]", "value": "dramatically increased the affinity for CNA"}]}
{"compound": "MAGFPPEITVTPPTP [CABIN1-L-1] [listing 1 of 2 here]", "values": [{"measurement": "association rate constant (kon)", "setting": "[5]", "value": "2613.3±421.5 1/MS"}, {"measurement": "dissociation rate constant (koff)", "setting": "[6]", "value": "1.31e-3±6.1e-5 1/S"}]}
{"compound": "MAGFPPEITVTPPTP [CABIN1-L-1] [listing 2 of 2 here]", "values": [{"measurement": "binding to CNA", "setting": "[7]; GAL4 DBD-tagged peptides, VP16 activation domain-tagged CNA, HEK293T", "value": "significantly stronger affinity for CNA than CABIN1-14"}]}
{"compound": "PVIVITPPTP [VIVIT PPTP]", "values": [{"measurement": "improvement of interaction with CNA, VIVIT PPTP vs. VIVIT 10-mer", "setting": "[7]; C-terminus PPTP sequence", "value": 4.76, "unit": "fold"}, {"measurement": "improvement of interaction with CNA, VIVIT PPTP vs. L-1-2 WT", "setting": "[7]; N-terminus PVIVIT", "value": 1.93, "unit": "fold"}, {"measurement": "phosphorylation by ERK2", "setting": "[8]", "value": "phosphorylate"}, {"measurement": "phosphorylation by JNK1", "setting": "[9]", "value": "phosphorylate"}, {"measurement": "phosphorylation by p38a", "setting": "[10]", "value": "phosphorylate"}]}
{"compound": "T6V: CABIN1 peptide with threonine 6 (threonine 2151 of full-length CABIN1) replaced with valine (PEITVVPPTP; left off: a dimerising Fc or GST; small tags and cut ends)", "values": [{"measurement": "interaction with CNA in cells", "setting": "[11]", "value": "loss of interaction between the CABIN1 peptide and CNA in cells and in vitro"}, {"measurement": "binding to CNA in vitro", "setting": "[12]", "value": "loss of interaction between the CABIN1 peptide and CNA in cells and in vitro"}]}
{"compound": "T9V: CABIN1 peptide with threonine 9 (threonine 2154 of full-length CABIN1) replaced with valine (PEITVTPPVP; left off: a dimerising Fc or GST; small tags and cut ends)", "values": [{"measurement": "interaction with CNA in cells", "setting": "[11]", "value": "loss of interaction in cell experiments"}, {"measurement": "NFAT transcriptional activity (luciferase activity)", "setting": "[13]", "value": "restored the transcriptional activity of NFAT inhibited by the wild-type CABIN1 peptide more efficiently than the T6V substitution"}]}
